Like-named read-outs stand apart in the source and are kept apart here.
Test system: HBV rcDNA
Experiment: HepDE19 assay with bDNA quantitation of HBV rcDNA
Type: cell-based, hepatitis B virus
Outline: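 Compounds, top concentration 25 μM in 8-point duplicate series, were applied to Tet-free HepDE19 cultures for 7 days. Branched-DNA quantitation of HBV rcDNA against untreated wells gave EC50 and EC90 by 4-parameter fit. Viability (CC50) came from ATP luminescence on parallel plates incubated 4 days.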

[1] = HepDE19 assay, inhibition of formation of relaxed circular DNA (rcDNA), bDNA quantitation, read-out: DE-19bDNA EC50
[2] = Hepatitis B virus, HepDE19, HepDE19 assay, inhibition of formation of rcDNA, read-out: DE-19bDNA EC50
[3] = HepDE19 assay, inhibition of formation of rcDNA, read-out: DE-19bDNA EC50
[4] = read-out: DE-19bDNA EC50, HepDE19 assay, inhibition of formation of relaxed circular DNA (rcDNA), bDNA quantitation

In the case of `CC(C)CN(C(=O)Nc1ccc(F)cc1)C(C)c1c[nH]c(=O)c2cc(F)c(F)cc12` (single isomer, unassigned) [Compound 288, 1-(1-(6,7-Difluoro-1-oxo-1,2-dihydroisoquinolin-4-yl)ethyl)-3-(4-fluorophenyl)-1-isobutylurea], the EC50 [1] is reported as 0.004 µM.
`CC(c1c[nH]c(=O)c2ccccc12)N(C)C(=O)Nc1ccc(F)c(Cl)c1` (racemic) [Compound 12, 3-(3-Chloro-4-fluorophenyl)-1-methyl-1-(1-(1-oxo-1,2-dihydroisoquinolin-4-yl)ethyl)urea] gave an EC50 [2] of 0.16 µM.
Compound `CC(C)CN(C(=O)Nc1ccc(F)c(Cl)c1)C(C)c1c[nH]c(=O)c2cnccc12` (single isomer, unassigned) [Compound 253, 3-(3-Chloro-4-fluorophenyl)-1-isobutyl-1-(1-(1-oxo-1,2-dihydro-2,7-naphthyridin-4-yl)ethyl)urea] has an EC50 [3] of 1.4 µM.
`CC(c1c[nH]c(=O)c2ccccc12)N(Cc1ccccn1)C(=O)Nc1ccc(F)c(Cl)c1` (single isomer, unassigned) [Compound 304, 3-(3-Chloro-4-fluorophenyl)-1-(1-(1-oxo-1,2-dihydroisoquinolin-4-yl)ethyl)-1-(pyridin-2-ylmethyl) urea] was tested, and the EC50 [1] was 9.6 µM.
Compound `CC(c1c[nH]c(=O)c2ccccc12)N(CC[C@@H](C)O)C(=O)Nc1ccc(F)c(Cl)c1` (single isomer, unassigned) [Compound 212] has an EC50 [3] of 0.02 µM.
Work on `CC(c1c[nH]c(=O)c2c(F)c(F)ccc12)N(C)C(=O)Nc1cccc(Cl)c1` (single isomer, unassigned) [Compound 461, 3-(3-Chlorophenyl)-1-(1-(7,8-difluoro-1-oxo-1,2-dihydroisoquinolin-4-yl)ethyl)-1-methylurea] yielded an EC50 [4] of 0.011 µM.
`CN(C(=O)Nc1ccc(F)c(Cl)c1)C(CO)c1c[nH]c(=O)c2ccccc12` (single isomer, unassigned) [Compound 379, 3-(3-Chloro-4-fluorophenyl)-1-(2-hydroxy-1-(1-oxo-1,2-dihydroisoquinolin-4-yl)ethyl)-1-methylurea] was tested, and the EC50 [4] was 0.14 µM.
`CC(c1c[nH]c(=O)c2cc(F)c(F)cc12)N(C)C(=O)Nc1ccc(F)cc1` (single isomer, unassigned) [Compound 285, 1-(1-(6,7-Difluoro-1-oxo-1,2-dihydroisoquinolin-4-yl)ethyl)-3-(4-fluorophenyl)-1-methylurea] was tested, and the EC50 [1] was 4.3 µM.
`CC(c1c[nH]c(=O)c2c(F)c(F)ccc12)N(C)C(=O)Nc1ccc(Cl)cc1` (single isomer, unassigned) [Compound 445, 3-(4-Chlorophenyl)-1-(1-(7,8-difluoro-1-oxo-1,2-dihydroisoquinolin-4-yl)ethyl)-1-methylurea] was tested, and the EC50 [4] was 0.22 µM.
With `CC(C)CN(C(=O)Nc1ccc(F)c(Cl)c1)C(C)c1cn(C)c(=O)c2cc(F)c(F)cc12` (single isomer, unassigned) [Compound 342, 3-(3-Chloro-4-fluorophenyl)-1-(1-(6,7-difluoro-2-methyl-1-oxo-1,2-dihydroisoquinolin-4-yl)ethyl)-1-isobutylurea] the EC50 [1] was 0.62 µM.
`CC(c1c[nH]c(=O)c2c(F)c(F)ccc12)N(C)C(=O)NCc1ccc(F)c(F)c1` (single isomer, unassigned) [Compound 490, 1-(1-(7,8-Difluoro-1-oxo-1,2-dihydroisoquinolin-4-yl)ethyl)-3-(3,4-difluorobenzyl)-1-methylurea] was tested, and the EC50 [1] was 0.78 µM.
`CC(c1c[nH]c(=O)c2cc(F)ccc12)N(CCS(N)(=O)=O)C(=O)Nc1ccc(F)c(Cl)c1` (single isomer, unassigned) [Compound 383, 2-(3-(3-Chloro-4-fluorophenyl)-1-(1-(7-fluoro-1-oxo-1,2-dihydroisoquinolin-4-yl)ethyl)ureido) ethane-1-sulfonamide] gave an EC50 [1] of 7 µM.
Compound `CC(c1c[nH]c(=O)c2c(F)c(F)ccc12)N(C)C(=O)Nc1ccccc1` (single isomer, unassigned) [Compound 436, 1-(1-(7,8-difluoro-1-oxo-1,2-dihydroisoquinolin-4-yl)ethyl)-1-methyl-3-phenylurea] has an EC50 [4] of 19.2 µM.
In the case of `CCN(Cc1c[nH]c(=O)c2ccccc12)C(=O)Nc1ccc(F)c(Cl)c1` [Compound 9, 3-(3-Chloro-4-fluorophenyl)-1-ethyl-1-((1-oxo-1,2-dihydroisoquinolin-4-yl)methyl)urea], the EC50 [2] is reported as 0.16 µM.
In the case of `CC(NC(=O)Nc1ccc(F)c(Cl)c1)c1c[nH]c(=O)c2c(F)c(F)ccc12` (single isomer, unassigned) [Compound 500, 1-(3-Chloro-4-fluorophenyl)-3-(1-(7,8-difluoro-1-oxo-1,2-dihydroisoquinolin-4-yl)ethyl)urea], the EC50 (Hepatitis B virus, HepDE19, read-out: DE-19bDNA EC50 (μM), HepDE19 assay, inhibition of formation of relaxed circular DNA (rcDNA), bDNA quantitation) is reported as 3 µM.
`CC(c1c[nH]c(=O)c2ccc(F)cc12)N(C)C(=O)Nc1ccc(F)c(Cl)c1` (single isomer, unassigned) [Compound 169, 3-(3-Chloro-4-fluorophenyl)-1-(1-(6-fluoro-1-oxo-1,2-dihydroisoquinolin-4-yl)ethyl)-1-methylurea] gave an EC50 [3] of 2.1 µM.
For `CC(c1c[nH]c(=O)c2ccc(F)cc12)N(CCS(N)(=O)=O)C(=O)Nc1ccc(F)c(Cl)c1` (single isomer, unassigned) [Compound 382, 2-(3-(3-Chloro-4-fluorophenyl)-1-(1-(6-fluoro-1-oxo-1,2-dihydroisoquinolin-4-yl)ethyl)ureido) ethane-1-sulfonamide], the EC50 [1] was 0.016 µM.
`CC(c1c[nH]c(=O)c2c(F)c(F)ccc12)N(C)C(=O)Nc1cc(F)c(F)c(F)c1` (single isomer, unassigned) [Compound 442, 1-(1-(7,8-Difluoro-1-oxo-1,2-dihydroisoquinolin-4-yl)ethyl)-1-methyl-3-(3,4,5-trifluorophenyl)urea] showed an EC50 [1] of 4.7 µM.
With `CC(c1c[nH]c(=O)c2cc(F)c(F)cc12)N(C)C(=O)Nc1cccc(F)c1` (single isomer, unassigned) [Compound 411, 1-(1-(6,7-Difluoro-1-oxo-1,2-dihydroisoquinolin-4-yl)ethyl)-3-(3-fluorophenyl)-1-methylurea] the EC50 [4] was 0.037 µM.
In the case of `CC(c1c[nH]c(=O)c2cc(F)c(F)cc12)N(C)C(=O)Nc1cc(F)c(F)c(F)c1` (single isomer, unassigned) [Compound 415, 1-(1-(6,7-Difluoro-1-oxo-1,2-dihydroisoquinolin-4-yl)ethyl)-3-(3,4,5-trifluorophenyl)-1-methylurea], the EC50 [1] is reported as 0.021 µM.
`CC(c1c[nH]c(=O)c2cc(F)c(F)cc12)N(C)C(=O)Nc1ccc2cc[nH]c2c1` (single isomer, unassigned) [Compound 486, 1-(1-(6,7-Difluoro-1-oxo-1,2-dihydroisoquinolin-4-yl)ethyl)-3-(1H-indol-6-yl)-1-methylurea] gave an EC50 [1] of 0.2 µM.
In the case of `CC(c1c[nH]c(=O)c2cc(F)c(F)cc12)N(CCS(N)(=O)=O)C(=O)Nc1ccc(F)c(Cl)c1` (single isomer, unassigned) [Compound 385, 2-(3-(3-Chloro-4-fluorophenyl)-1-(1-(6,7-difluoro-1-oxo-1,2-dihydroisoquinolin-4-yl)ethyl)ureido) ethane-1-sulfonamide], the EC50 [1] is reported as 2.6 µM.
`CC(c1c[nH]c(=O)c2cc(F)c(F)cc12)N(C)C(=O)Nc1cc(Cl)c(F)c(Cl)c1` (single isomer, unassigned) [Compound 439, 3-(3,5-Dichloro-4-fluorophenyl)-1-(1-(6,7-difluoro-1-oxo-1,2-dihydroisoquinolin-4-yl)ethyl)-1-methylurea] showed an EC50 [1] of 0.12 µM.
`CC(c1c[nH]c(=O)c2c(F)c(F)ccc12)N(C)C(=O)Nc1ccnc(Cl)c1` (single isomer, unassigned) [Compound 454, 3-(2-Chloropyridin-4-yl)-1-(1-(7,8-difluoro-1-oxo-1,2-dihydroisoquinolin-4-yl)ethyl)-1-methylurea] gave an EC50 (Hepatitis B virus, HepDE19, HepDE19 assay, inhibition of formation of relaxed circular DNA (rcDNA), bDNA quantitation, read-out: DE-19bDNA EC50) of 0.17 µM.
In the case of `CC(c1c[nH]c(=O)c2ccccc12)N(CCCO)C(=O)Nc1ccc(F)c(Cl)c1` (single isomer, unassigned) [Compound 131, 3-(3-Chloro-4-fluorophenyl)-1-(3-hydroxypropyl)-1-(1-(1-oxo-1,2-dihydroisoquinolin-4-yl)ethyl)urea], the EC50 (read-out: DE-19bDNA EC50, HepDE19 assay, inhibition of formation of rcDNA) is reported as 0.01 µM.
`CC(c1c[nH]c(=O)c2ccccc12)N(CCS(C)(=O)=O)C(=O)Nc1ccc(F)c(Cl)c1` (single isomer, unassigned) [Compound 107, 3-(3-Chloro-4-fluorophenyl)-1-(2-(methylsulfonyl)ethyl)-1-(1-(1-oxo-1,2-dihydroisoquinolin-4-yl)ethyl)urea] gave an EC50 [3] of 17 µM.
`CCN(C(=O)Nc1ccc(F)c(Cl)c1)C(C)c1cnc(OC)c2ccccc12` (single isomer, unassigned) [Compound 22, 3-(3-Chloro-4-fluorophenyl)-1-ethyl-1-(1-(1-methoxyisoquinolin-4-yl)ethyl)urea] was tested, and the EC50 [3] was 9.6 µM.
`CC(c1c[nH]c(=O)c2c(F)c(F)ccc12)N(C)C(=O)Nc1ccc(F)c(C(F)F)c1` (single isomer, unassigned) [Compound 504, 1-(1-(7,8-Difluoro-1-oxo-1,2-dihydroisoquinolin-4-yl)ethyl)-3-(3-(difluoromethyl)-4-fluorophenyl)-1-methylurea] was tested, and the EC50 [1] was 0.015 µM.
In the case of `CC(C)CN(C(=O)Nc1ccc(F)c(Cl)c1)C(C)c1c[nH]c(=O)c2c(F)cccc12` (single isomer, unassigned) [Compound 360, 3-(3-Chloro-4-fluorophenyl)-1-(1-(8-fluoro-1-oxo-1,2-dihydroisoquinolin-4-yl)ethyl)-1-isobutylurea], the EC50 [1] is reported as 0.18 µM.
